{
  "source": "PubChem BioAssay AID230",
  "about": "(DTP/NCI, 2004)",
  "test_system": "C3H/He mice, Gardner lymphosarcoma 6C3HED ip, survival T/C",
  "test": "NCI In Vivo Anticancer Drug Screen. Data for tumor model Lymphosarcoma Gardner 6C3HED (intraperitoneal) in C3H/He mice",
  "settings": "higher = longer survival",
  "description": "The antitumor activity of compounds was measured in mice bearing transplantable tumors. Survival or tumor size were measured and the results are expressed as the measurement made in the treated group (T) divided by the measurement made in the vehicle treated control group (C). The tumor model used in this assay is Lymphosarcoma Gardner 6C3HED (intraperitoneal) in C3H/He mice",
  "key": {"[1]": {"settings": "endpoint: survival time, mean or median, dose: 25.0 mg/kg/injection, schedule: Q01DX010 (ip), vehicle: saline"}, "[2]": {"settings": "endpoint: survival time, mean or median, dose: 50.0 mg/kg/injection, schedule: Q01DX010 (ip), vehicle: saline"}, "[3]": {"settings": "endpoint: survival time, mean or median, dose: 5.0 mg/kg/injection, schedule: Q01DX010 (ip), vehicle: saline"}, "[4]": {"settings": "endpoint: survival time, mean or median, dose: 20.0 mg/kg/injection, schedule: Q01DX010 (ip), vehicle: saline"}, "[5]": {"settings": "endpoint: survival time, mean or median, dose: 62.5 mg/kg/injection, schedule: Q01DX010 (ip), vehicle: saline"}, "[6]": {"settings": "endpoint: survival time, mean or median, dose: 125.0 mg/kg/injection, schedule: Q01DX010 (ip), vehicle: saline"}, "[7]": {"settings": "endpoint: survival time, mean or median, dose: 250.0 mg/kg/injection, schedule: Q01DX010 (ip), vehicle: saline"}, "[8]": {"settings": "endpoint: survival time, mean or median, dose: 500.0 mg/kg/injection, schedule: Q01DX010 (ip), vehicle: saline"}, "[9]": {"settings": "endpoint: survival time, mean or median, dose: 40.0 mg/kg/injection, schedule: Q01DX010 (ip), vehicle: saline"}},
  "note": "Several values for one entry are separate records, joined by “and”; a condition that tells them apart may be missing. Equal values may be shown once. Inconclusive results and toxic doses are left out.",
  "data": [
    {"smiles": "CN(C)CC(=O)c1ccc(O)c(O)c1", "values": [
      {"measurement": "T/C", "setting": "endpoint: survival time, mean or median, dose: 300.0 mg/kg/injection, schedule: Q01DX010 (ip), vehicle: saline", "result": "180 % of control"},
      {"measurement": "T/C", "setting": "endpoint: survival time, mean or median, dose: 675.0 mg/kg/injection, schedule: Q01DX010 (ip), vehicle: saline", "result": "106 % of control"}
    ]},
    {"smiles": "CSc1ncnc2nc[nH]c12", "values": [
      {"measurement": "T/C", "setting": "[1]", "result": "100 % of control"},
      {"measurement": "T/C", "setting": "[2]", "result": "93 % of control and 100 % of control"},
      {"measurement": "T/C", "setting": "endpoint: survival time, mean or median, dose: 100.0 mg/kg/injection, schedule: Q01DX010 (ip), vehicle: saline", "result": "93 % of control and 100 % of control"},
      {"measurement": "T/C", "setting": "endpoint: survival time, mean or median, dose: 200.0 mg/kg/injection, schedule: Q01DX010 (ip), vehicle: saline", "result": "93 % of control and 103 % of control"}
    ]},
    {"smiles": "C[C@@H]1C[C@H]2CC[C@H](O2)[C@H](C)C(=O)O[C@@H](C)C[C@@H]2CC[C@@H](O2)[C@@H](C)C(=O)O[C@H](C)C[C@H]2CC[C@H](O2)[C@H](C)C(=O)O[C@@H](C)C[C@@H]2CC[C@@H](O2)[C@@H](C)C(=O)O1", "values": [
      {"measurement": "T/C", "setting": "endpoint: survival time, mean or median, dose: 12.5 mg/kg/injection, schedule: Q01DX010 (ip), vehicle: saline", "result": "100 % of control"},
      {"measurement": "T/C", "setting": "[1]", "result": "92 % of control"},
      {"measurement": "T/C", "setting": "[2]", "result": "96 % of control"}
    ]},
    {"smiles": "OCCOCCN1CCN(CCCN2c3ccccc3Sc3ccc(C(F)(F)F)cc32)CC1", "values": [
      {"measurement": "T/C", "setting": "[3]", "result": "90 % of control"},
      {"measurement": "T/C", "setting": "[4]", "result": "90 % of control"}
    ]},
    {"smiles": "N[C@@H](Cc1ccc(N(CCCl)CCCl)cc1)C(=O)O", "values": [
      {"measurement": "T/C", "setting": "endpoint: survival time, mean or median, dose: 0.5 mg/kg/injection, schedule: Q01DX010 (ip), vehicle: saline", "result": "106 % of control"},
      {"measurement": "T/C", "setting": "endpoint: survival time, mean or median, dose: 2.0 mg/kg/injection, schedule: Q01DX010 (ip), vehicle: saline", "result": "150 % of control"},
      {"measurement": "T/C", "setting": "endpoint: survival time, mean or median, dose: 4.0 mg/kg/injection, schedule: Q01DX010 (ip), vehicle: saline", "result": "93 % of control"}
    ]},
    {"smiles": "c1ccc(CCSc2ncnc3nc[nH]c23)cc1", "values": [
      {"measurement": "T/C", "setting": "[5]", "result": "96 % of control"},
      {"measurement": "T/C", "setting": "[6]", "result": "96 % of control and 100 % of control"},
      {"measurement": "T/C", "setting": "[7]", "result": "93 % of control and 96 % of control"},
      {"measurement": "T/C", "setting": "[8]", "result": "93 % of control and 96 % of control"}
    ]},
    {"smiles": "Nc1nc2n[nH]nc2c(=O)[nH]1", "values": [
      {"measurement": "T/C", "setting": "endpoint: survival time, mean or median, dose: 25.0 mg/kg/injection, schedule: Q01DX010 (ip), vehicle: alkali diluted with saline", "result": "109 % of control"},
      {"measurement": "T/C", "setting": "endpoint: survival time, mean or median, dose: 50.0 mg/kg/injection, schedule: Q01DX010 (ip), vehicle: alkali diluted with saline", "result": "115 % of control and 118 % of control"},
      {"measurement": "T/C", "setting": "endpoint: survival time, mean or median, dose: 100.0 mg/kg/injection, schedule: Q01DX010 (ip), vehicle: alkali diluted with saline", "result": "120 % of control"},
      {"measurement": "T/C", "setting": "endpoint: survival time, mean or median, dose: 200.0 mg/kg/injection, schedule: Q01DX010 (ip), vehicle: alkali diluted with saline", "result": "100 % of control"}
    ]},
    {"smiles": "Nc1ncnc2c1ncn2C1OC(COC=O)C(O)C1O", "note": "(stereo unspecified)", "values": [
      {"measurement": "T/C", "setting": "endpoint: median survival time, dose: 13.8 mg/kg/injection, schedule: Q01DX003 (ip), vehicle: saline", "result": "90 % of control"},
      {"measurement": "T/C", "setting": "endpoint: median survival time, dose: 13.8 mg/kg/injection, schedule: Q12HX006 (ip), vehicle: saline", "result": "104 % of control"},
      {"measurement": "T/C", "setting": "endpoint: median survival time, dose: 27.6 mg/kg/injection, schedule: Q01DX003 (ip), vehicle: saline", "result": "104 % of control"},
      {"measurement": "T/C", "setting": "endpoint: median survival time, dose: 27.6 mg/kg/injection, schedule: Q12HX006 (ip), vehicle: saline", "result": "104 % of control"},
      {"measurement": "T/C", "setting": "endpoint: median survival time, dose: 55.2 mg/kg/injection, schedule: Q01DX003 (ip), vehicle: saline", "result": "104 % of control"},
      {"measurement": "T/C", "setting": "endpoint: median survival time, dose: 55.2 mg/kg/injection, schedule: Q12HX006 (ip), vehicle: saline", "result": "120 % of control"}
    ]},
    {"smiles": "O=c1[nH]cc(F)c(=O)[nH]1", "values": [
      {"measurement": "T/C", "setting": "endpoint: median survival time, dose: 13.3 mg/kg/injection, schedule: Q01DX009 (ip), vehicle: saline", "result": "222 % of control"},
      {"measurement": "T/C", "setting": "endpoint: median survival time, dose: 20.0 mg/kg/injection, schedule: Q01DX009 (ip), vehicle: saline", "result": "222 % of control"},
      {"measurement": "T/C", "setting": "endpoint: median survival time, dose: 27.0 mg/kg/injection, schedule: Q01DX009 (ip), vehicle: saline", "result": "203 % of control"},
      {"measurement": "T/C", "setting": "[3]", "result": "110 % of control"},
      {"measurement": "T/C", "setting": "[4]", "result": "283 % of control"},
      {"measurement": "T/C", "setting": "[9]", "result": "203 % of control"}
    ]},
    {"smiles": "Cc1cn(C2OC(CO)C(O)C2O)c(=O)[nH]c1=O", "note": "(stereo unspecified)", "values": [
      {"measurement": "T/C", "setting": "[5]", "result": "100 % of control"},
      {"measurement": "T/C", "setting": "[6]", "result": "96 % of control and 100 % of control"},
      {"measurement": "T/C", "setting": "[7]", "result": "100 % of control"},
      {"measurement": "T/C", "setting": "[8]", "result": "103 % of control"}
    ]},
    {"smiles": "CC(=O)O[C@]1(C(C)=O)CC[C@H]2[C@@H]3C[C@H](C)C4=CC(=O)C=C[C@]4(C)[C@@]3(F)[C@@H](O)C[C@@]21C", "values": [
      {"measurement": "T/C", "setting": "endpoint: survival time, mean or median, dose: 6.25 mg/kg/injection, schedule: Q01DX010 (sc), vehicle: steriod suspending solution", "result": "100 % of control"},
      {"measurement": "T/C", "setting": "endpoint: survival time, mean or median, dose: 12.5 mg/kg/injection, schedule: Q01DX010 (sc), vehicle: steriod suspending solution", "result": "96 % of control"},
      {"measurement": "T/C", "setting": "endpoint: survival time, mean or median, dose: 25.0 mg/kg/injection, schedule: Q01DX010 (sc), vehicle: steriod suspending solution", "result": "92 % of control"},
      {"measurement": "T/C", "setting": "endpoint: survival time, mean or median, dose: 50.0 mg/kg/injection, schedule: Q01DX010 (sc), vehicle: steriod suspending solution", "result": "92 % of control"}
    ]},
    {"smiles": "O=c1[nH]c(=O)n(C2CC(O)C(CO)O2)cc1F", "note": "(stereo unspecified)", "values": [
      {"measurement": "T/C", "setting": "[3]", "result": "115 % of control and 303 % of control"},
      {"measurement": "T/C", "setting": "endpoint: survival time, mean or median, dose: 10.0 mg/kg/injection, schedule: Q01DX010 (ip), vehicle: saline", "result": "100 % of control and 115 % of control"},
      {"measurement": "T/C", "setting": "[4]", "result": "107 % of control and 229 % of control"},
      {"measurement": "T/C", "setting": "[9]", "result": "115 % of control and 212 % of control"}
    ]}
  ]
}
